Experimental data reported in US12187720B2, “Compounds for treatment of cancer” (ONCTERNAL THERAPEUTICS, INC., priority 2010, dated 2025).
Read-outs that look alike come from different tables or passages of the source.

Key:
[1] = tested on: T1, tubulin colchicine binding site; assay: [3H]-colchicine competition-binding scintillation proximity assay
T1 construct: […]

[2] = Metabolic stability in dog liver microsomes; format: in vitro ADME; settings: Table 20; for half-life at 0.5 μM: dog, dog liver microsomes, pH 7.4, read-out: Half life in Dog liver microsome
WM-164 melanoma cells = assay: Microtubule imaging (immunofluorescence) in WM-164 melanoma cells; format: cell-based, human; settings: 18 h
Description: Primary antibody for tubulin and fluorescence-labeled secondary antibody were subsequently added to the cells. Cell nuclei were stained by DAPI. Whole Cell Stain Green was also applied to all cells. All images were acquired with an Olympus IX71 inverted fluorescence microscope (Olympus Corp., Tokyo, Japan) with overlays from separate images of tubulin (red), nuclei (blue), and whole cells (green).

[3] = Metabolic stability in mouse liver microsomes; format: in vitro ADME; settings: for half-life at 0.5 μM: mouse, liver microsomes, pH 7.4, Table 20, read-out: Half life in Mouse liver microsome
[4] = Metabolic stability in human liver microsomes; settings: for half-life at 0.5 μM: human, liver microsomes, pH 7.4
[5] = Metabolic stability in rat liver microsomes; format: in vitro ADME; settings: Table 20; for half-life at 0.5 μM: rat, liver microsomes, pH 7.4, read-out: Half life in Rat liver microsome
Porcine brain tubulin = assay: In vitro microtubule polymerization assay (porcine brain tubulin); format: biochemical; settings: 5 μM, at 15 min
PC-3/TxR tumors = settings: PC-3/TxR xenograft, b.i.d × 5/w, end point day 26
PC-3 = assay: SRB cytotoxicity assay, PC-3 prostate cancer cells; format: cell-based, human; settings: Homo sapiens, PC-3; Table 16B; read-out: IC50 in PC3
Description: Cells were stained with SRB solution.

glioma cells = assay: SRB cytotoxicity assay, glioma cells; settings: read-out: potency in glioma cells
[6] = Permeability (drug-like properties); settings: mean from duplicate studies
[7] = tested on: tubulin (colchicine, vinblastine and paclitaxel binding sites); assay: Mass spectrometry competitive binding assay on tubulin
Description: MS competition binding assay. […] Each reaction was run in triplicate.

[8] = Pharmacokinetic study in beagle dogs; settings: dog, in vivo
in vivo [9] = settings: Sprague-Dawley, rat, plasma
[10] = Pharmacokinetic study in Sprague-Dawley rats
[11] = Pharmacokinetic study in ICR mice
[12] = tested on: A375 human melanoma xenograft; assay: In vivo efficacy, A375 human melanoma xenograft in mice
Procedure: DTIC at 60 mg/kg was used as a positive control again.
PC-3 and A375 tumor xenograft studies.
(§1) In vivo antitumor activity [tumor growth inhibition (% T/C), tumor growth delay (T-C value), and tumor cell kill (total log cell kill)].

B16-F1 melanoma tumors = assay: In vivo efficacy, B16-F1 melanoma in C57/BL mice; set-up: species or system mouse; settings: 45 mg/kg, 13 days, C57BL/6 mice
in vitro = settings: human, microsomes, pH 7.4
[13] = Rotarod test (in vivo neurotoxicity) in ICR mice; set-up: species or system mouse; settings: 1h 5 or 15 mg/kg, vinblastine 0.5 mg/kg, i.p. daily
Procedure: Rotarod test. […] The rotarod test was performed twice a week.

Bovine brain tubulin = assay: In vitro tubulin polymerization assay (bovine brain tubulin); format: biochemical; settings: 10 μM
in vivo [14] = settings: male, ICR, mouse, plasma, iv, 15 mg/kg
PC-3 xenografts = settings: for mice that lost more than 15% body weight: mouse, in vivo
Description: as §1

[15] = Metabolic stability in monkey liver microsomes; format: in vitro ADME; settings: Table 20
PC-3 cells = assay: Apoptosis detection by ELISA (cytoplasmic DNA-histone complexes), PC-3 cells; format: cell-based, human; settings: PC-3 and A375 cells, 24 h
Description: The levels of DNA-histone complexes were used to represent cell apoptosis.
Apoptosis detection by ELISA. Quantification of the enrichment of mono- and oligonucleosomes in the cytoplasm was used to determine the ability of the compounds to induce apoptosis (cell death detection ELISA PLUS, Roche, Germany) following the manufacturer's instructions.

BCRP = assay: in vitro; settings: human
B16-F1 melanoma cells = assay: B16-F1 melanoma colony formation assay in soft agar; format: cell-based, mouse; settings: 14 days
Procedure: B16-F1 melanoma cells were plated at a colony-forming density (2000 cells per well on six-well plates) on top of 0.8% base agar. Cells were grown in 0.4% agar together with DMEM medium supplemented with fetal bovine serum and an antibiotic-antimycotic solution at 37° C. in an atmosphere of 95% air and 5% CO2. […] Compounds were added to the media from 1 mM DMSO stock solutions, and a corresponding dilution of DMSO was used as control. Cells were grown for 14 days. Plates were photographed, and the number of colonies was measured by Artek 880 Automated Colony Counter (Artek Systems Corporation, Farmingdale, NY).

A375 cells = assay: Cell cycle analysis (flow cytometry) in A375 cells; format: cell-based, human; settings: 24 h
MES-SA/DX5 = assay: SRB growth inhibition assay, P-gp over-expressing MES-SA/DX5 cells; format: cell-based; settings: Table 6; read-out: IC50 ± SEM MES-SA/Dx5
HUVECs = assay: Endothelial cell growth inhibition (SRB), HUVEC; format: cell-based, human
NCI/ADR-RES = assay: SRB cytotoxicity assay, P-gp over-expressing NCI/ADR-RES cells; format: cell-based, human; settings: NCI/ADR-RES versus OVCAR-8

## COc1cc(C(=O)c2c[nH]c(-c3ccc(C)cc3)n2)cc(OC)c1OC [12da, (2-(p-tolyl)-1H-imidazol-4-yl)(3,4,5-trimethoxyphenyl)methanone]
[1]
  colchicine site binding in words: highest binding affinity
[2]
  half-life at 0.5 μM: 17 min
WM-164 melanoma cells
  effect on microtubules: microtubule fragmentation
[3]
  half-life at 0.5 μM: 8 min
[4]
  half-life at 0.5 μM: 23 min
[5]
  half-life at 0.5 μM: 28 min

## COc1cc(C(=O)c2csc(Nc3ccc4[nH]ccc4c3)n2)cc(OC)c1OC [compound 55, (2-(1H-INDOL-5-YLAMINO)THIAZOL-4-YL)(3,4,5-TRIMETHOXYPHENYL)METHANONE]
Porcine brain tubulin
  inhibition of tubulin polymerization: 40%
PC-3/TxR tumors; PO 10 mpk
  Tumor size End: 1152 ± 433 mm^3
PC-3/TxR tumors; PO 30 mpk
  Tumor size End: 101 ± 19 mm^3
PC-3
  IC50: 28 nM
Glioma cells
  IC50: 22 nM
[6]
  Papp(A→B) in CaCO-2 assay: 99 10^−6 cm/s
[7]
  competition for tubulin binding sites: competed effectively with colchicine
[8]
  clearance in words, dogs: moderate clearance
In vivo [9]; ICR, beagle, po
  bioavailability: 24 to 36%
[10]; rat, in vivo
  clearance in words, rats: low clearance
[11]; mouse, in vivo
  clearance in words, mice: moderate clearance

## O=C(c1ccc(F)cc1)c1c[nH]c(-c2ccc(Cl)cc2)n1 [12fb, (2-(4-chlorophenyl)-1H-imidazol-4-yl)(4-fluorophenyl)methanone]
[12]; 25 mg/kg, SHO mice
  tolerability: well tolerated
B16-F1 melanoma tumors
  tumor growth inhibition (TGI value): 82%
In vitro
  half-life at 0.5 μM: 37 min

## COc1cc(C(=O)c2csc(-c3ccccc3)n2)cc(OC)c1OC [1h, (2-Phenyl-thiazol-4-yl)-(3,4,5-trimethoxy-phenyl)-methanone]
[12]; Melanoma (A375) xenograft, 20 mg/kg i.p.
  T-C (tumor growth delay): 10 days
[12]; ip, 20 mg/kg, 110.4 h
  Total log cell kill: 0.7
[13]
  time on the rotating rod versus vehicle group: no significant difference
[2]
  half-life at 0.5 μM: 19 min
Bovine brain tubulin; 15 min
  inhibition of tubulin polymerization: 90%
Bovine brain tubulin; 20 min incubation, versus vehicle
  inhibition of tubulin polymerization: 47%
[7]
  competition for tubulin binding sites: specifically competed with colchicine binding to tubulin
In vivo [14]
  AUC: 1900 ng·h/mL
  half-life: 140 min
[3]
  half-life at 0.5 μM: < 5 min
PC-3 xenografts; 5 mg/kg i.p.
  % T/C: 29%
PC-3 xenografts; 15 mg/kg i.p.
  % T/C: 4%
PC-3 xenografts; ip, 15 mg/kg, 504 h
  % T/C: 4%
PC-3 xenografts
  mice that lost more than 15% body weight: 1 of 8
In vivo [9]; iv, […]
  Vd: 7.6 L/kg
  clearance: 6 mL/min/kg
  half-life: 1440 min
In vivo [9]; female, iv
  clearance: 7.7 ± 1 mL/min/kg
[15]; monkey, monkey liver microsomes, pH 7.4, read-out: Half life in Monkey liver microsome
  half-life at 0.5 μM: < 5 min
ICR mice, 4 consecutive days of intraperitoneal dosing
  dose that did not cause greater than 10% loss of body weight: up to 30 mg/kg
[10]; IV, […] (1h, 2r), 5 mg/kg (5Ha, 5Hc)
  Vss (volume of distribution following intravenous dosing): 4.9 ± 1.9 L/kg
[10]; rat, PO 10 mg/kg
  RatPK_PO10mgk_AUC: 37 µg·min/mL
[10]; rats, PO versus IV
  F (percent oral bioavailability), rat: 3.3%
PC-3 cells
  concentration inducing apoptosis: 50 nM
[5]
  half-life at 0.5 μM: 31 min

## CC[C@]1(O)C[C@@H]2CN(CCc3c([nH]c4ccccc34)[C@@](C(=O)OC)(c3cc4c(cc3OC)N(C)[C@H]3[C@@](O)(C(=O)OC)[C@H](OC(C)=O)[C@]5(CC)C=CCN6CC[C@]43[C@@H]65)C2)C1 [vinblastine, reference compound]
[13]
  time on the rotating rod versus vehicle group: gradually reduced the time
[7]
  competition for tubulin binding sites: did not inhibit the colchicine-tubulin binding
PC-3 xenografts; 0.5 mg/kg q2d, day 22
  % T/C: 29%
PC-3 xenografts; Prostate (PC-3) xenograft, 0.5 mg/kg, q2d
  % T/C: 29%
BCRP
  IC50: 25 ± 1 nM

## COc1ccc(-c2nc(C(=O)c3ccc(F)cc3)c[nH]2)cc1 [12cb, (4-fluorophenyl)(2-(4-methoxyphenyl)-1H-imidazol-4-yl)methanone]
B16-F1 melanoma cells
  concentration with effective inhibition of colony formation: 20 nM
WM-164 melanoma cells
  effect on microtubules: microtubule fragmentation
A375 cells
  concentration from which most cells are arrested in the G2/M phase: 200 nM

## COc1cc(C(=O)c2csc(-c3ccc(F)cc3)n2)cc(OC)c1OC [2k]
[12]; Melanoma (A375) xenograft, 15 mg/kg i.p.
  T-C (tumor growth delay): 11 days
[12]; Melanoma (A375) xenograft, 15 mg/kg i.p., doubling time 4.6 d
  Total log cell kill: 0.7
[2]
  Half life in Dog liver microsome: 16 min
MES-SA/DX5
  IC50: 19 nM
[3]; Table 20
  Half life in Mouse liver microsome: 9 min
[4]; Table 20
  half life in human liver microsome: 10 min
PC-3 xenografts; 5 mg/kg i.p.
  % T/C: 21%
PC-3 xenografts; 15 mg/kg i.p.
  % T/C: 24%
PC-3 xenografts; Prostate (PC-3) xenograft, 5 mg/kg i.p., 21 days
  % T/C: 21%
PC-3 xenografts; Prostate (PC-3) xenograft, 15 mg/kg i.p., 21 days
  % T/C: 24%
PC-3 xenografts
  mice that lost more than 15% body weight: 2 out of 7
[15]
  Half life in Monkey liver microsome: <5 min
mouse, in vivo, ip
  dose that did not cause greater than 10% loss of body weight: ≤ 15 mg/kg
PC-3 cells
  concentration inducing apoptosis: 50 nM
[5]
  Half life in Rat liver microsome: 32 min
[11]; Mice, 15 mg/kg i.v.
  AUC: 22000 ng·h/mL
  CL: 112 mL/min/kg
  Vss: 6.6 L/kg

## COc1cccc2c1C(=O)c1c(O)c3c(c(O)c1C2=O)C[C@@](O)(C(=O)CO)C[C@@H]3O[C@H]1C[C@H](N)[C@H](O)[C@H](C)O1 [doxorubicin]
HUVECs
  times more active against endothelial cells than against cancer cells: not specific to endothelial cells
HUVECs; N = 3
  IC50: 274 nM

## CC(C)NCC(O)COc1cccc2ccccc12 (stereo not shown) [Propranolol]
[6]
  Papp(A→B) in CaCO-2 assay: (19) 10^−6 cm/s

## COc1cc(C(=NC#N)c2csc(-c3ccccc3)n2)cc(OC)c1OC [2j, N-((2-phenylthiazol-4-yl)(3,4,5-trimethoxyphenyl)methylene)cyanamide]
NCI/ADR-RES
  Resistance factor: 0.4
[4]
  half-life at 0.5 μM: < 5 min
